# Measurements reported in US10604474B2, “Crystalline form of gamma-aminobutyric acid and preparation method thereof” (NANTONG LICHENG BIOLOGICAL ENGINEERING CO., LTD, priority 2016, dated 2020).
# Experiments:
# Type in all cases: physicochemical
# [1] = Angle of repose (flowability) measured with a 1050/70 type goniometer; details: slightly ground, smeared on horizontal quartz plate; smaller than 40° meets flowability requirements
# Experimental: It is generally believed that the smaller the angle of repose, the better the flowability. When the angle of repose is smaller than 40°, flowability requirements in the production process can be met.
# [2] = Moisture absorption and agglomeration
# [3] = Bulk density
# [4] = Scanning Electron Microscopy (SEM) characterization of crystals
SMILES,Angle of repose (flowability) [1] [°],Susceptibility to absorbing moisture and agglomeration [2],Bulk density [3] [g/mL],Particle size distribution [4],Agglomeration [2]
"NCCCC(=O)O [Embodiment 3, γ-aminobutyric acid]",34,not susceptible to absorbing moisture and agglomeration,0.85,uniform,–
"NCCCC(=O)O [Embodiment 5, γ-aminobutyric acid]",37,not susceptible to absorbing moisture and agglomeration,0.7,uniform,–
"NCCCC(=O)O [CN101928736A, CN103509831A, CN104531795A, CN102242161A] [γ-aminobutyric acid, reference compound]",50,–,0.65,–,Serious agglomeration
"NCCCC(=O)O [Embodiment 4, γ-aminobutyric acid]",36,not susceptible to absorbing moisture and agglomeration,0.75,uniform,–
"NCCCC(=O)O [Embodiment 2, γ-aminobutyric acid]",37,not susceptible to absorbing moisture and agglomeration,0.7,uniform,–
"NCCCC(=O)O [Present invention, γ-aminobutyric acid]",35,–,0.80,–,No agglomeration
"NCCCC(=O)O [Embodiment 6, γ-aminobutyric acid]",35,not susceptible to absorbing moisture and agglomeration,0.8,uniform,–
"NCCCC(=O)O [Embodiment 1, γ-aminobutyric acid]",35,not susceptible to absorbing moisture and agglomeration,0.8,uniform,–
